Laboratory results from PMC5216903 (Febs Letters, 2016).

Experiments:
Assay in all cases: two-electrode voltage clamp of Xenopus oocytes, steady-state current
Conditions in all cases: ND96 buffer pH 7.6, -60 mV; Fe(III) complex of DMA
Hv-Zm-Hv = assay type: cell-based, Hordeum vulgare; Zea mays
Zm-Hv-Zm = assay type: cell-based, Zea mays; Hordeum vulgare
HvYS1 = HvYS1 (Hordeum vulgare, UniProt Q2PGC4); assay type: cell-based
ZmYS1 = target: T1, ZmYS1 (Zea mays, UniProt Q9AY27); assay type: cell-based
T1 sequence (Q9AY27 1-682): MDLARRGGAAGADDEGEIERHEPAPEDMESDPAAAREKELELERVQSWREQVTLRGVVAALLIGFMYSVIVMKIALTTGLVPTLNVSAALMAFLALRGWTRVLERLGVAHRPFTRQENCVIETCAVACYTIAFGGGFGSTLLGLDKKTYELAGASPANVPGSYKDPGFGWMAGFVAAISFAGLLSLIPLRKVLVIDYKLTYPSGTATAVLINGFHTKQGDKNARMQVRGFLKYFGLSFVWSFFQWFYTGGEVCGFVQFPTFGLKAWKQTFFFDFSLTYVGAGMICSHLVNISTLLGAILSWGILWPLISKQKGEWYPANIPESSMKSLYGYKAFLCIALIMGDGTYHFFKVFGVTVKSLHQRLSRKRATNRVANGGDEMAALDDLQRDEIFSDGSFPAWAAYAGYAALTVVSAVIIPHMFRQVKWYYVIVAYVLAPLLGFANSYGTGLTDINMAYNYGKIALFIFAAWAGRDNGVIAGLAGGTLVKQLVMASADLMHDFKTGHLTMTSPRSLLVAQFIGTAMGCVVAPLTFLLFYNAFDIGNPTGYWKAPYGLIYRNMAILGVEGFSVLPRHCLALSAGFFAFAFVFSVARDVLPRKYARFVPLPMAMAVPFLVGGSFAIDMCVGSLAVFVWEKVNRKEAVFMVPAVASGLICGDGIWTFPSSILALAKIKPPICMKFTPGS

Sequence of HvYS1 (Q2PGC4 1-678): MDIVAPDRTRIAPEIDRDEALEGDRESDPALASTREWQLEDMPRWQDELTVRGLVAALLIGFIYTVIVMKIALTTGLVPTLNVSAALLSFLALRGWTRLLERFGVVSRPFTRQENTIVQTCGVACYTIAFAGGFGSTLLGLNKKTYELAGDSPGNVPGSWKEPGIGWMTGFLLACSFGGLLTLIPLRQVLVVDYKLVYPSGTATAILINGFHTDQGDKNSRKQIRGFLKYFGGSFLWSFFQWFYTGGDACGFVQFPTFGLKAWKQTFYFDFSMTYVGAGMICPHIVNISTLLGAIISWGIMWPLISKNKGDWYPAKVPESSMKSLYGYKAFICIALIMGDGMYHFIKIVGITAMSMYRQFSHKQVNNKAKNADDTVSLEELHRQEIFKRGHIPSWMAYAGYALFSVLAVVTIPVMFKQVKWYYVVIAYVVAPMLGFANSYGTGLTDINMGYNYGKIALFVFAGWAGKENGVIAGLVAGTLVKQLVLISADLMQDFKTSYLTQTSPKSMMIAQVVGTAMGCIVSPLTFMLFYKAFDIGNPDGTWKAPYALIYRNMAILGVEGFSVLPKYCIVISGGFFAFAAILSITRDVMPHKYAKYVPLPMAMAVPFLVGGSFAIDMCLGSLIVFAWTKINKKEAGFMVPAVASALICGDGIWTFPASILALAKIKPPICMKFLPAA

Km (Hv-Zm-Hv): 60.8 µM
Km (Zm-Hv-Zm): 44.2 µM
Km (HvYS1): 71.8 µM
Km (ZmYS1): 65.3 µM
Structure (SMILES): O=C([O-])[C@H](CCN1CC[C@H]1C(=O)[O-])NCC[C@H](O)C(=O)[O-].[Fe+3] [Fe(III)-DMA]
